Measured values published in patent US20230167073A1 (Teijin Pharma Limited, priority 2020, published 2023).

biological target: T1, Human TRPC6 (Homo sapiens, UniProt Q9Y210); assay: Evaluation of TRPC6 channel inhibitory activity (2), HEK293 cells with stably introduced human TRPC6, OAG stimulation, FLIPR tetra (Compound Nos. 1293 to 1405); type: cell-based; conditions: HEK293 cells with stably introduced human TRPC6, OAG 50 μM/0.5% DMSO, read-out: Inhibitory activity (pIC50 class) (converted)
T1 construct: expressed in transfected cells
T1 sequence (Q9Y210 1-931): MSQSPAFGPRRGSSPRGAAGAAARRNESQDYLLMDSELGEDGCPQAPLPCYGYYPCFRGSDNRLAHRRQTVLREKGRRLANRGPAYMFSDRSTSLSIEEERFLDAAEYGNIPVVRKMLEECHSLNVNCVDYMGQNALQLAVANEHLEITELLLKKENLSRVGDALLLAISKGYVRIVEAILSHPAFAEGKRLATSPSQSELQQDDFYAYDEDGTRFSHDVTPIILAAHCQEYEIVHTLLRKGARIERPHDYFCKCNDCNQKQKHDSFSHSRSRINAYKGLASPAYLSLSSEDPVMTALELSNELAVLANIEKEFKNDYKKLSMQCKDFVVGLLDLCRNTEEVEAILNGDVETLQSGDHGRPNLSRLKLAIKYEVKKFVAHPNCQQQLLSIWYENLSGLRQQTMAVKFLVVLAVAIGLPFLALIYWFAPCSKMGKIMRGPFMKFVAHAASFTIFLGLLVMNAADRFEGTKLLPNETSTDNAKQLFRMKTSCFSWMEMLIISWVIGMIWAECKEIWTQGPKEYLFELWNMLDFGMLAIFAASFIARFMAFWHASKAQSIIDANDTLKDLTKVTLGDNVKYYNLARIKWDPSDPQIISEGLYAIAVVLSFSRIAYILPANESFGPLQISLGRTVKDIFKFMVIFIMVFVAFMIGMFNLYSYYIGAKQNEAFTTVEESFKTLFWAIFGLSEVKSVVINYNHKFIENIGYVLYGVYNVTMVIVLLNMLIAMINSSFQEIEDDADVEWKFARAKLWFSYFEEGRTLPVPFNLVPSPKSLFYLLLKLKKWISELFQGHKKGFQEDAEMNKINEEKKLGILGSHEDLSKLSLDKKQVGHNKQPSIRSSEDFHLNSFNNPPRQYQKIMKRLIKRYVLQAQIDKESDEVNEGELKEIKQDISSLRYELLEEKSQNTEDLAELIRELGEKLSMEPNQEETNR
In short: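 Calcium-dye-loaded HEK293 cells stably expressing human TRPC6 were pretreated with compound for 25 min, then stimulated with 50 μM OAG (0.5% DMSO) in Ca ringer buffer pH 7.2 with 2 mM CaCl2. Background-subtracted FLIPR calcium peaks were normalized to OAG (100%) and buffer (0%); pIC50 came from four-parameter logistic fit, binned as +/++/+++.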

Compound | IC50 [µM]
Cn1nc(C2CCOCC2)cc1Oc1cc(Cl)cnc1-c1ccc(C(F)(F)CN)cn1 [compound 1399, 2-[6-[5-chloro-3-[2-methyl-5-(oxan-4-yl)pyrazol-3-yl]oxypyridin-2-yl]pyridin-3-yl]-2,2-difluoroethanamine] | > 1
Cn1nc(C2CCOCC2)cc1Oc1cc(C#N)ccc1-c1ccc(C(F)(F)CN)cn1 [compound 1400, 4-[5-(2-amino-1,1-difluoroethyl)pyridin-2-yl]-3-[2-methyl-5-(oxan-4-yl)pyrazol-3-yl]oxybenzonitrile] | 0.01 to 1
Cn1nc(-c2ccccn2)cc1Oc1cc(Cl)ccc1-c1ccc([C@@H](O)CN)cn1 [compound 1401, (1R)-2-amino-1-[6-[4-chloro-2-(2-methyl-5-pyridin-2-ylpyrazol-3-yl)oxyphenyl]pyridin-3-yl]ethanol] | 0.01 to 1
Cn1nc(-c2ccccn2)cc1Oc1cc(Cl)cc(F)c1-c1ccc(CN)cn1 [compound 1404, [6-[4-chloro-2-fluoro-6-(2-methyl-5-pyridin-2-ylpyrazol-3-yl)oxyphenyl]pyridin-3-yl]methanamine] | < 0.01

Results, then the molecule that gave them:

IC50 [µM] | Compound
0.01 to 1 | Cc1nc(Oc2cc(C#N)ccc2-c2ncc([C@H](F)CN)cn2)cc(N2CCOCC2)n1 [compound 1403, 4-[5-[(1S)-2-amino-1-fluoroethyl]pyrimidin-2-yl]-3-(2-methyl-6-morpholin-4-ylpyrimidin-4-yl)oxybenzonitrile]
> 1 | Cc1nc(Oc2cc(Cl)ccc2-c2ncc(CCN)cn2)c(C)c(N2CCOCC2)n1 [compound 1405, 2-[2-[4-chloro-2-(2,5-dimethyl-6-morpholin-4-ylpyrimidin-4-yl)oxyphenyl]pyrimidin-5-yl]ethanamine]
